Laboratory results taken from PubChem BioAssay AID2060491 (Molecular Pharmacology Branch, DTP, NCI, 2025).
Each block holds one compound with its values, some of them ahead of it.

Test system: 857933-349-R-J2-PDC complex spheroids, viability
Test: Anticancer human tumor 857933-349-R-J2-PDC patient-derived colon adenocarcinoma cell line growth inhibition [GQUAD]
Settings: for IC50: curve of first compound; for viability, T/C: stronger effect = lower value
Procedure, shortened: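 Multi-cell-type spheroids of tumor cells with HUVEC and mesenchymal stem cells, treated with drug combinations. Concentrations descend in half-log steps from near clinical Cmax, or from 10 microM where Cmax is unknown; viability read-out.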

[1] = second compound 0.0316 µM, first compound 0.0316 µM
[2] = second compound 0.0316 µM, first compound 0.1 µM
[3] = second compound 0.0316 µM, first compound 0.316 µM
[4] = second compound 0.0316 µM, first compound 1 µM
[5] = second compound 0.0316 µM, first compound 3.16 µM
[6] = second compound 0.0316 µM, first compound 10 µM
[7] = second compound 0.1 µM, first compound 0.0316 µM
[8] = second compound 0.1 µM, first compound 0.1 µM
[9] = second compound 0.1 µM, first compound 0.316 µM
[10] = second compound 0.1 µM, first compound 1 µM
[11] = second compound 0.1 µM, first compound 3.16 µM
[12] = second compound 0.1 µM, first compound 10 µM
[13] = second compound 0.316 µM, first compound 0.0316 µM
[14] = second compound 0.316 µM, first compound 0.1 µM
[15] = second compound 0.316 µM, first compound 0.316 µM
[16] = second compound 0.316 µM, first compound 1 µM
[17] = second compound 0.316 µM, first compound 3.16 µM
[18] = second compound 0.316 µM, first compound 10 µM
[19] = second compound 1 µM, first compound 0.0316 µM
[20] = second compound 1 µM, first compound 0.1 µM
[21] = second compound 1 µM, first compound 0.316 µM
[22] = second compound 1 µM, first compound 1 µM
[23] = second compound 1 µM, first compound 3.16 µM
[24] = second compound 1 µM, first compound 10 µM
[25] = second compound 3.16 µM, first compound 0.0316 µM
[26] = second compound 3.16 µM, first compound 0.1 µM
[27] = second compound 3.16 µM, first compound 0.316 µM
[28] = second compound 3.16 µM, first compound 1 µM
[29] = second compound 3.16 µM, first compound 3.16 µM
[30] = second compound 3.16 µM, first compound 10 µM
[31] = second compound 10 µM, first compound 0.0316 µM
[32] = second compound 10 µM, first compound 0.1 µM
[33] = second compound 10 µM, first compound 0.316 µM
[34] = second compound 10 µM, first compound 1 µM
[35] = second compound 10 µM, first compound 3.16 µM
[36] = second compound 10 µM, first compound 10 µM
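Note: spheroids exposed to compounds for one week before readout.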
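Throughout, for viability, T/C: percent viability relative to vehicle DMSO wells taken as 100%.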

- IC50 (second compound 0.0316 µM): < 31.6 nM
- IC50 (second compound 0.1 µM): < 31.6 nM
- IC50 (second compound 0.316 µM): < 31.6 nM
- IC50 (second compound 1 µM): < 31.6 nM
- IC50 (second compound 3.16 µM): < 31.6 nM
- IC50 (second compound 10 µM): < 31.6 nM
SMILES: CC1COCCN1c1cc(C2(O)CC3CCC(C2)O3)c2cnn(-c3ccn[nH]3)c2n1 (stereo not drawn) + Cc1cnc(CNC(=O)c2c(=O)c3ccc(N4CCCN(C)CC4)nc3n3c2sc2ccccc23)cn1
- viability, T/C [1]: 49.9%
- viability, T/C [2]: 38.6%
- viability, T/C [3]: 36.8%
- viability, T/C [4]: 32.6%
- viability, T/C [5]: 35.3%
- viability, T/C [6]: 32%
- viability, T/C [7]: 33%
- viability, T/C [8]: 30.3%
- viability, T/C [9]: 21.1%
- viability, T/C [10]: 28%
- viability, T/C [11]: 31.8%
- viability, T/C [12]: 34%
- viability, T/C [13]: 8.32%
- viability, T/C [14]: 5.49%
- viability, T/C [15]: 5.41%
- viability, T/C [16]: 4.77%
- viability, T/C [17]: 9.73%
- viability, T/C [18]: 13.8%
- viability, T/C [19]: 2.88%
- viability, T/C [20]: 2.12%
- viability, T/C [21]: 2.17%
- viability, T/C [22]: 2.14%
- viability, T/C [23]: 4.27%
- viability, T/C [24]: 1.54%
- viability, T/C [25]: 1.85%
- viability, T/C [26]: 1.84%
- viability, T/C [27]: 1.55%
- viability, T/C [28]: 1.35%
- viability, T/C [29]: 1.5%
- viability, T/C [30]: 0.57%
- viability, T/C [31]: 0.52%
- viability, T/C [32]: 0.38%
- viability, T/C [33]: 0.33%
- viability, T/C [34]: 0.38%
- viability, T/C [35]: 0.85%
- viability, T/C [36]: 0.32%

- IC50 (second compound 0.0316 µM): 800 nM
- IC50 (second compound 0.1 µM): 327 nM
- IC50 (second compound 0.316 µM): < 31.6 nM
- IC50 (second compound 1 µM): < 31.6 nM
- IC50 (second compound 3.16 µM): < 31.6 nM
- IC50 (second compound 10 µM): < 31.6 nM
SMILES: CC1COCCN1c1cc(C2(S(C)(=N)=O)CC2)nc(-c2ccnc3[nH]ccc23)n1 (stereo not drawn) + Cc1cnc(CNC(=O)c2c(=O)c3ccc(N4CCCN(C)CC4)nc3n3c2sc2ccccc23)cn1
- viability, T/C [1]: 82%
- viability, T/C [2]: 75.7%
- viability, T/C [3]: 72.3%
- viability, T/C [4]: 43.8%
- viability, T/C [5]: 42.1%
- viability, T/C [6]: 31.9%
- viability, T/C [7]: 56.5%
- viability, T/C [8]: 68.6%
- viability, T/C [9]: 45.8%
- viability, T/C [10]: 39.1%
- viability, T/C [11]: 34.4%
- viability, T/C [12]: 26.7%
- viability, T/C [13]: 26.8%
- viability, T/C [14]: 31.2%
- viability, T/C [15]: 20.8%
- viability, T/C [16]: 13.4%
- viability, T/C [17]: 10.6%
- viability, T/C [18]: 10%
- viability, T/C [19]: 5.52%
- viability, T/C [20]: 6.04%
- viability, T/C [21]: 4.55%
- viability, T/C [22]: 3.48%
- viability, T/C [23]: 3.6%
- viability, T/C [24]: 4.17%
- viability, T/C [25]: 2.4%
- viability, T/C [26]: 2.9%
- viability, T/C [27]: 2.49%
- viability, T/C [28]: 1.88%
- viability, T/C [29]: 1.99%
- viability, T/C [30]: 2.82%
- viability, T/C [31]: 1.11%
- viability, T/C [32]: 1.51%
- viability, T/C [33]: 1.22%
- viability, T/C [34]: 1.75%
- viability, T/C [35]: 1.64%
- viability, T/C [36]: 2.19%

- IC50 (second compound 0.0316 µM): 712 nM
- IC50 (second compound 0.1 µM): 179 nM
- IC50 (second compound 0.316 µM): < 31.6 nM
- IC50 (second compound 1 µM): < 31.6 nM
- IC50 (second compound 3.16 µM): < 31.6 nM
- IC50 (second compound 10 µM): < 31.6 nM
SMILES: COc1ccc([C@@H](O)c2cc(-c3ncnc4cc(N5CCOCC5)ccc34)c(F)cc2Cl)nn1 + Cc1cnc(CNC(=O)c2c(=O)c3ccc(N4CCCN(C)CC4)nc3n3c2sc2ccccc23)cn1
- viability, T/C [1]: 95.5%
- viability, T/C [2]: 81.5%
- viability, T/C [3]: 58%
- viability, T/C [4]: 47.1%
- viability, T/C [5]: 43%
- viability, T/C [6]: 38%
- viability, T/C [7]: 59.5%
- viability, T/C [8]: 59.5%
- viability, T/C [9]: 40.9%
- viability, T/C [10]: 25.9%
- viability, T/C [11]: 23.2%
- viability, T/C [12]: 26.5%
- viability, T/C [13]: 26.5%
- viability, T/C [14]: 26.6%
- viability, T/C [15]: 14.2%
- viability, T/C [16]: 3.09%
- viability, T/C [17]: 2.64%
- viability, T/C [18]: 2.37%
- viability, T/C [19]: 4.74%
- viability, T/C [20]: 3.32%
- viability, T/C [21]: 3.45%
- viability, T/C [22]: 2.29%
- viability, T/C [23]: 1.33%
- viability, T/C [24]: 1.08%
- viability, T/C [25]: 2.27%
- viability, T/C [26]: 2.54%
- viability, T/C [27]: 2.01%
- viability, T/C [28]: 1.72%
- viability, T/C [29]: 1.23%
- viability, T/C [30]: 0.95%
- viability, T/C [31]: 1.48%
- viability, T/C [32]: 2.1%
- viability, T/C [33]: 0.71%
- viability, T/C [34]: 1.8%
- viability, T/C [35]: 0.73%
- viability, T/C [36]: 0.29%

- IC50 (second compound 0.0316 µM): > 10000 nM
- IC50 (second compound 0.1 µM): > 10000 nM
- IC50 (second compound 0.316 µM): < 31.6 nM
- IC50 (second compound 1 µM): < 31.6 nM
- IC50 (second compound 3.16 µM): < 31.6 nM
- IC50 (second compound 10 µM): < 31.6 nM
SMILES: O=C(c1cc(Cc2n[nH]c(=O)c3ccccc23)ccc1F)N1CCN(C(=O)C2CC2)CC1 + Cc1cnc(CNC(=O)c2c(=O)c3ccc(N4CCCN(C)CC4)nc3n3c2sc2ccccc23)cn1
- viability, T/C [1]: 101%
- viability, T/C [2]: 88.6%
- viability, T/C [3]: 99.9%
- viability, T/C [4]: 83.7%
- viability, T/C [5]: 84.8%
- viability, T/C [6]: 77.8%
- viability, T/C [7]: 66%
- viability, T/C [8]: 80.9%
- viability, T/C [9]: 62%
- viability, T/C [10]: 58.4%
- viability, T/C [11]: 68.7%
- viability, T/C [12]: 72.3%
- viability, T/C [13]: 29.3%
- viability, T/C [14]: 31.1%
- viability, T/C [15]: 26.4%
- viability, T/C [16]: 31.4%
- viability, T/C [17]: 34%
- viability, T/C [18]: 38.4%
- viability, T/C [19]: 4.96%
- viability, T/C [20]: 4.81%
- viability, T/C [21]: 4.45%
- viability, T/C [22]: 3.67%
- viability, T/C [23]: 5.47%
- viability, T/C [24]: 6.38%
- viability, T/C [25]: 2.65%
- viability, T/C [26]: 2.92%
- viability, T/C [27]: 2.93%
- viability, T/C [28]: 3.33%
- viability, T/C [29]: 2.59%
- viability, T/C [30]: 2.87%
- viability, T/C [31]: 1.22%
- viability, T/C [32]: 2.2%
- viability, T/C [33]: 2.36%
- viability, T/C [34]: 1.84%
- viability, T/C [35]: 2.2%
- viability, T/C [36]: 1.68%
